{"source": "patent US10676508B2", "about": "“DEPDC1-derived peptide and vaccine containing same” (OncoTherapy Science, Inc., priority 2015, dated 2020)", "key": {"[1]": {"system": "peptide-pulsed C1R-A01 cells", "experiment": "In vitro CTL induction, IFN-gamma ELISPOT assay (HLA-A*0101)", "format": "cell-based, human", "settings": "CTLs from HLA-A*0101-positive donors, DCs pulsed with 20 micro-g/ml peptide, day 21, versus unpulsed C1R-A01", "excerpt": "Monocyte-derived dendritic cells (DCs) were used as the antigen-presenting cell to induce a cytotoxic T lymphocyte (CTL) response against peptides presented on human leukocyte antigens (HLAs). As described in the other sections, DCs were generated in vitro (Nakahara S et al., Cancer Res 2003, 63(14): 4112-8). Specifically, peripheral-blood mononuclear cells isolated from healthy volunteers (HLA-A*0101-positive) with the Ficoll-Paque plus solution (Pharmacia) were separated by attaching to plastic tissue culture dishes (Becton Dickinson) and concentrated as a monocyte fraction. The monocyte-concentrated population was cultured in the presence of 1000 IU/ml granulocyte macrophage colony-stimulating factor (R&D System) and 1000 IU/ml interleukin (IL)-4 (R&D System) in an AIM-V medium (Invitrogen) containing 2% heat-inactivated autologous serum (AS). After seven days of culturing, the cytokine-induced DCs were pulsed with 20 micro-g/ml each of the synthesized peptides in an AIM-V medium at 37 degrees C. for three hours in the presence of 3 micro-g/ml beta 2-microglobulin. Next, these peptide-pulsed DCs were inactivated by X-ray irradiation (20 Gy), and mixed in a 1:20 ratio with autologous CD8^+ T cells obtained by positive selection using the CD8 Positive Isolation Kit (Dynal). These culture products were seeded in a 48-well plate (Corning). Each well was made to contain 1.5×10^4 peptide-pulsed DCs, 3×10^5 CD8^+ T cells and 10 ng/ml IL-7 (R&D System) in 0.5 ml of the AIM-V/2% AS medium. Three days later, these culture products were added with a final concentration of 20 IU/ml IL-2 (CHIRON). On day 7 and day 14, T cells were further stimulated with peptide-pulsed autologous DCs. The DCs were prepared every time by the same method as above. On day 21, after the third peptide stimulation, CTL activities were examined against the peptide-pulsed C1R-A01 cells (Tanaka H et al., Br J Cancer 2001, 84(1): 94-9; Umano Y et al., Br J Cancer 2001, 84(8): 1052-7; Uchida N et al., Clin Cancer Res 2004, 10(24): 8577-86; Suda T et al., Cancer Sci 2006, 97(5): 411-9; Watanabe T et al., Cancer Sci 2005, 96(8): 498-506).\nTo examine specific CTL activity, an IFN-gamma ELISPOT assay and an IFN-gamma ELISA were performed. Specifically, peptide-pulsed C1R-A01 cells (1×10^4 cells/well) were prepared as the stimulator cell. The induced CTLs, i.e., CTL lines and CTL clones, were used as the responder cell. The IFN-gamma ELISPOT assay and IFN-gamma ELISA were performed according to the manufacturer's manual."}, "[2]": {"system": "peptide-pulsed C1R-A01 cells", "experiment": "IFN-gamma ELISA of CTL line and CTL clone (HLA-A*0101)", "format": "cell-based, human", "procedure": "(§1) CTLs were propagated in culture using methods similar to those disclosed by Riddell et al. (Walter E A et al., N Engl J Med 1995, 333(16): 1038-44; Riddell S R et al., Nat Med 1996, 2(2): 216-23). The CTLs were co-cultured in a total of 25 ml AIM-V medium containing 5% AS and 40 ng/ml anti-CD3 antibody with two types of Mitomycin C-treated human B lymphoblastoid cell lines at 5×10^6 cells. One day after beginning of the culturing, 120 IU/ml IL-2 was added to the culture. On days 5, 8 and 11, a fresh AIM-V/5% AS medium containing 30 IU/ml IL-2 was added to the culture (Tanaka H et al., Br J Cancer 2001, 84(1): 94-9; Umano Y et al., Br J Cancer 2001, 84(8): 1052-7; Uchida N et al., Clin Cancer Res 2004, 10(24): 8577-86; Suda T et al., Cancer Sci 2006, 97(5): 411-9; Watanabe T et al., Cancer Sci 2005, 96(8): 498-506).\n(§2) CTLs were seeded to make 1 or 10 cells/well in 96 round-bottomed microtiter plates (Nalge Nunc International). The CTLs were co-cultured with two types of Mitomycin C-treated human B lymphoblastoid cell lines at 1×10^4 cells in a total of 150 micro-l/well 5% AS-containing AIM-V medium with 30 ng/ml anti-CD3 antibody and 125 IU/ml IL-2. Ten days later, 50 micro-1 of IL-2 at 500 IU/ml in 5% AS-containing AIM-V medium was added to the medium. […]"}, "[3]": {"system": "COS7 cells transfected with DEPDC1 and HLA-A*0101", "experiment": "Specific CTL activity against target cells expressing DEPDC1 and HLA-A*0101", "format": "cell-based, African green monkey", "settings": "peptide-induced CTL clone", "excerpt": "A cDNA encoding the open-reading frame of a target gene or HLA-A*0101 was amplified by PCR. The PCR-amplified product was cloned into an expression vector. Expression vectors were transfected using Lipofectamine 2000 (Invitrogen) following the manufacturer's recommended protocol. Two days after transfection, the transfected cells were harvested using versene (Invitrogen), and used as the stimulator cell for CTL activity assay (5×10^4 cells/well).\n(§3) The CTL clone induced with DEPDC1-A01-11-44 (SEQ ID NO: 108) was investigated for its ability to recognize target cells expressing DEPDC1 and the HLA-A*0101 molecule. COS7 cells transfected with both full-length DEPDC1 and the HLA-A*0101 gene were prepared as the target cell. COS7 cells transfected with either full-length DEPDC1 or HLA-A*0101 were prepared as the control."}, "peptide-pulsed C1R-A11 [4]": {"system": "peptide-pulsed C1R-A11", "experiment": "In vitro CTL induction, IFN-gamma ELISPOT assay (HLA-A*1101)", "format": "cell-based, human", "settings": "CTLs from HLA-A*1101-positive donors, DCs pulsed with 20 micro-g/ml peptide, day 21, versus unpulsed C1R-A11", "excerpt": "Monocyte-derived dendritic cells (DCs) were used as the antigen-presenting cell to induce a cytotoxic T lymphocyte (CTL) response against peptides presented on human leukocyte antigens (HLAs). As described in the other sections, DCs were generated in vitro (Nakahara S et al., Cancer Res 2003, 63(14): 4112-8). Specifically, peripheral-blood mononuclear cells isolated from healthy volunteers (HLA-A*1101-positive) with the Ficoll-Paque plus solution (Pharmacia) were separated by attaching to plastic tissue culture dishes (Becton Dickinson) and concentrated as a monocyte fraction. The monocyte-concentrated population was cultured in the presence of 1000 IU/ml granulocyte macrophage colony-stimulating factor (R&D System) and 1000 IU/ml interleukin (IL)-4 (R&D System) in an AIM-V medium (Invitrogen) containing 2% heat-inactivated autologous serum (AS). After seven days of culturing, the cytokine-induced DCs were pulsed with 20 micro-g/ml each of the synthesized peptides in an AIM-V medium at 37 degrees C. for three hours in the presence of 3 micro-g/ml beta 2-microglobulin.\nNext, these peptide-pulsed DCs were inactivated by X-ray irradiation (20 Gy), and mixed in a 1:20 ratio with autologous CD8^+ T cells obtained by positive selection using the CD8 Positive Isolation Kit (Dynal). These culture products were seeded in a 48-well plate (Corning). […]"}, "peptide-pulsed C1R-A11 [5]": {"system": "peptide-pulsed C1R-A11", "experiment": "IFN-gamma ELISA of CTL line and CTL clones (HLA-A*1101)", "format": "cell-based, human", "procedure": "as §1, with “5% AS (AIM-V/5% AS) and 40” for “5% AS and 40”, “cell lines (5×10^6 cells). One day” for “cell lines at 5×10^6 cells. One day”\nas §2, with “micro-l/well AIM-V/5% AS” for “micro-l/well 5% AS-containing AIM-V”, “later,” for “later, 50 micro-1 of”, “in 50 micro-1 AIM-V/5% AS” for “in 5% AS-containing AIM-V”"}, "[6]": {"system": "COS7 cells transfected with DEPDC1 and HLA-A*1101", "experiment": "Specific CTL activity against target cells expressing DEPDC1 and HLA-A*1101", "format": "cell-based, African green monkey", "settings": "peptide-induced CTL line", "excerpt": "A cDNA encoding the open-reading frame of a target gene or HLA-A*1101 was amplified by PCR. The PCR-amplified product was cloned into an expression vector. Either or both of the target gene-expressing vector and the HLA-A*1101-expressing vector were transfected into COS7 cells, which is a cell line negative for the target gene and HLA, using Lipofectamine 2000 (Invitrogen) following the manufacturer's recommended protocol. Two days after transfection, the transfected cells were harvested using versene (Invitrogen), and used as the target cell for CTL activity assay (5×10^4 cells/well).\nas §3, with “line” for “clone”, “DEPDC1-A11-9-627” for “DEPDC1-A01-11-44”, “1)” for “108)”, “HLA-A*1101” for “HLA-A*0101”"}}}
{"sequence": "FTAGEAVDWLY (a peptide derived from DEPDC1) [SEQ ID NO: 108]", "values": [{"measurement": "peptide-specific CTL activity (IFN-gamma production, ELISPOT)", "setting": "[1]", "value": "potent IFN-gamma production"}, {"measurement": "IFN-gamma production of CTL clone (ELISA)", "setting": "[2]; CTL clone by limiting dilution, peptide-pulsed C1R-A01 cells", "value": "Potent IFN-gamma production"}, {"measurement": "IFN-gamma production of the CTL line (ELISA)", "setting": "[2]; CTL line from Well #8, peptide-pulsed versus unpulsed target cells", "value": "potent IFN-gamma production"}, {"measurement": "CTL activity against control COS7 cells", "setting": "[3]; COS7 transfected with either full-length DEPDC1 or HLA-A*0101", "value": "a significant specific CTL activity was not detected"}, {"measurement": "CTL activity against COS7 cells expressing both DEPDC1 and HLA-A*0101", "setting": "[3]", "value": "potent CTL activities"}]}
{"sequence": "MSQNVDMPK [SEQ ID NO: 1]", "values": [{"measurement": "peptide-specific CTL activity (IFN-gamma production, ELISPOT)", "setting": "peptide-pulsed C1R-A11 [4]", "value": "potent IFN-gamma production"}, {"measurement": "IFN-gamma production of CTL clones (ELISA)", "setting": "peptide-pulsed C1R-A11 [5]; CTL clones by limiting dilution, peptide-pulsed C1R-A11 cells", "value": "Potent IFN-gamma production"}, {"measurement": "IFN-gamma production of the CTL line (ELISA)", "setting": "peptide-pulsed C1R-A11 [5]; CTL line from Well #4, peptide-pulsed versus unpulsed target cells", "value": "potent IFN-gamma production"}, {"measurement": "CTL activity against control COS7 cells", "setting": "[6]; COS7 transfected with either full-length DEPDC1 or HLA-A*1101", "value": "a significant specific CTL activity was not detected"}, {"measurement": "CTL activity against COS7 cells expressing both DEPDC1 and HLA-A*1101", "setting": "[6]", "value": "potent CTL activity"}]}
